Earlier results as cited in PMC7751758, “Repurposing Sigma-1 Receptor Ligands for COVID-19 Therapy?” (Frontiers in Pharmacology, 2020).
“And” between values parts separate entries of the source, which are not always exact repeats. Identical values can stand only once.

Tests used:
[1] = target: Sigma-1 receptor; conditions: for IC50: read-out: Sigma-1 receptor affinity IC50; for Ki: read-out: Sigma-1 receptor affinity Ki
[2] = tested on: HCV infection of human hepatocarcinoma Huh-7 cells; conditions: absence of cytotoxicity at low micromolar and submicromolar concentrations; ref Gastaminza et al., 2010
[3] = tested on: SARS-CoV
[4] = tested on: MERS-CoV

**Q.** Which results are given for C[C@@H]1CN(CCCn2c3ccccc3c3ccccc32)C[C@H](C)N1 [Rimcazole, 9-[3-(cis-3,5-Dimethyl-1-piperazinyl)-propyl]carbazole]?
**A.** IC50 [1]: […]; Ki [1]: […]; reduction in HCV infection of Huh-7 cells, as compared to the vehicle DMSO control [2]: > 85%

**Q.** For CN1CCN(CC/C=C2/c3ccccc3Sc3ccc(S(=O)(=O)N(C)C)cc32)CC1 [Thiothixene], which IC50 [1] is on record?
**A.** The IC50 was 353 nM.

**Q.** What about the “Antiviral activity: Virus” value [3] of the same compound?
**A.** Its value is “in vitro activity”.

**Q.** What about the “Antiviral activity: Virus” value [4] of the same compound?
**A.** The value was “in vitro activity”.

**Q.** With C[C@@H]1C[C@@H]([C@H](O)CC2CC(=O)NC(=O)C2)C(=O)[C@@H](C)C1 [Cycloheximide] as the compound, how does the IC50 [1] read?
**A.** The IC50 was 1030 nM.

**Q.** And the “Antiviral activity: Virus” value [3]?
**A.** The value was “in vitro activity”.

**Q.** What about the “Antiviral activity: Virus” value [4] of the same compound?
**A.** The value was “in vitro activity”.

**Q.** Which IC50 [1] does the source give for OCc1cc(C(O)CNCCCCCCOCCCCc2ccccc2)ccc1O (stereo not drawn) [Salmeterol] here?
**A.** Its IC50 is 151 nM.

**Q.** And the “reduction in HCV infection of Huh-7 cells, as compared to the vehicle DMSO control” value (shortened to “reduction in HCV infection”) [2]?
**A.** The value was greater than 85%.

**Q.** Which Sig-1R activity [1] does the source give for Cc1cc2c(s1)Nc1ccccc1N=C2N1CCN(C)CC1 [olanzapine] here?
**A.** The Sig-1R activity was “no significant Sig-1R activity”.

**Q.** With Clc1ccc2c(c1)CCc1cccnc1C2=C1CCNCC1 [Desloratadine] as the compound, how does the “reduction in HCV infection” value [2] read?
**A.** Its value is greater than 85%.

**Q.** With O=C1NCN(c2ccccc2)C12CCN(CCCC(c1ccc(F)cc1)c1ccc(F)cc1)CC2 [Fluspirilene] as the compound, how does the IC50 [1] read?
**A.** Its IC50 is 380 nM and 563 nM.

**Q.** And the Ki [1]?
**A.** Its Ki is 150 nM.

**Q.** What about the “Antiviral activity: Virus” value [3] of the same compound?
**A.** The value was “in vitro activity”.

**Q.** What about the “Antiviral activity: Virus” value [4] of the same compound?
**A.** Its value is “in vitro activity”.

**Q.** Which results are given for NC(=NCc1ccc(Cl)cc1)SCCCc1cnc[nH]1 [Clobenpropit]?
**A.** IC50 [1]: 1080 nM; reduction in HCV infection of Huh-7 cells, as compared to the vehicle DMSO control [2]: > 85%

**Q.** For CNC1CC(c2ccc(Cl)c(Cl)c2)c2ccccc21 (stereo not drawn) [Indatraline], which IC50 [1] is on record?
**A.** Its IC50 is 737 nM.

**Q.** And the “reduction in HCV infection” value [2]?
**A.** The value was greater than 85%.

**Q.** Which IC50 [1] does the source give for OC(c1cc(C(F)(F)F)nc2c(C(F)(F)F)cccc12)C1CCCCN1 (stereo not drawn) [Mefloquine] here?
**A.** Its IC50 is 2560 nM.

**Q.** What about the “Antiviral activity: Virus” value [3] of the same compound?
**A.** The value was “in vitro activity”.

**Q.** What about the “Antiviral activity: Virus” value [4] of the same compound?
**A.** Its value is “in vitro activity”.

**Q.** For CN(C)CCOC(C)(c1ccccc1)c1ccc(Cl)cc1 (stereo not drawn) [Chlorphenoxamine], which IC50 [1] is on record?
**A.** Its IC50 is 1760 nM.

**Q.** And the “Antiviral activity: Virus” value [3]?
**A.** Its value is “in vitro activity”.

**Q.** What about the “Antiviral activity: Virus” value [4] of the same compound?
**A.** The value was “in vitro activity”.

**Q.** For CN1CCC(=C2c3ccccc3C=Cc3ccccc32)CC1 [Cyproheptadine], which “reduction in HCV infection” value [2] is on record?
**A.** The value was greater than 85%.

**Q.** With CC(=O)[C@H]1CC[C@H]2[C@@H]3CCC4=CC(=O)CC[C@]4(C)[C@H]3CC[C@]12C [Progesterone] as the compound, how does the IC50 [1] read?
**A.** Its IC50 is 1960 nM.

**Q.** What about the Ki [1] of the same compound?
**A.** The Ki was 173 to 196 nM and 260 to 338 nM.

**Q.** Which IC50 [1] does the source give for (−)-Butaclamol here?
**A.** Its IC50 is 183 nM.

**Q.** With CN(CCCN1c2ccccc2CCc2ccccc21)CC(=O)c1ccc(Cl)cc1 [Lofepramine] as the compound, how does the “Sigma-1 receptor affinity, inhibition” value ([1]; at 10 µM) read?
**A.** Its value is 100% inh. at 10 µM.

**Q.** And the Ki [1]?
**A.** The Ki was 2520 nM.

**Q.** And the “reduction in HCV infection” value [2]?
**A.** Its value is greater than 85%.

**Q.** Which results are given for Clc1ccc(C(OCCN2CCCCC2)c2ccccc2)cc1 (stereo not drawn) [Cloperastine]?
**A.** IC50 [1]: 277 nM; Ki [1]: 20 nM

**Q.** With CN1CCN(c2nc3cc(C(F)(F)F)ccc3n3cccc23)CC1.O=C(O)/C=C\C(=O)O.O=C(O)/C=C\C(=O)O [CGS 12066B] as the compound, how does the IC50 [1] read?
**A.** The IC50 was 1180 nM.

**Q.** What about the “reduction in HCV infection” value [2] of the same compound?
**A.** The value was greater than 85%.

**Q.** For CN1CCC(=C2c3ccccc3CC(=O)c3sccc32)CC1 [Ketotifen], which IC50 [1] is on record?
**A.** The IC50 was 3800 nM.

**Q.** And the “reduction in HCV infection” value [2]?
**A.** Its value is greater than 85%.

**Q.** Which IC50 [1] does the source give for CN1CCCC(n2nc(Cc3ccc(Cl)cc3)c3ccccc3c2=O)CC1 (stereo not drawn) [Azelastine] here?
**A.** The IC50 was 274 nM.

**Q.** And the “reduction in HCV infection” value [2]?
**A.** Its value is greater than 85%.

**Q.** For Fc1ccc(-n2cc(CCCCN3CCC4(CC3)OCc3ccccc34)c3ccccc32)cc1 [Siramesine], which IC50 [1] is on record?
**A.** The IC50 was 17 nM.

**Q.** Which IC50 [1] does the source give for (±)-Butaclamol here?
**A.** Its IC50 is 343 nM.

**Q.** Which IC50 [1] does the source give for CC(COc1ccccc1Cc1ccccc1)N1CCCCC1 (stereo not drawn) [Benproperine] here?
**A.** The IC50 was 19 nM.

**Q.** And the “reduction in HCV infection” value [2]?
**A.** Its value is greater than 85%.

**Q.** What does the source list for COc1ccccc1OCCNCC(O)COc1cccc2[nH]c3ccccc3c12 (stereo not drawn) [Carvedilol]?
**A.** IC50 [1]: 1570 nM; reduction in HCV infection of Huh-7 cells, as compared to the vehicle DMSO control [2]: > 85%

**Q.** With CCN(CC)Cc1cc(Nc2ccnc3cc(Cl)ccc23)ccc1O [Amodiaquine] as the compound, how does the IC50 [1] read?
**A.** The IC50 was 355 nM.

**Q.** And the “Antiviral activity: Virus” value [3]?
**A.** Its value is “in vitro activity”.

**Q.** And the “Antiviral activity: Virus” value [4]?
**A.** The value was “in vitro activity”.
